# Legend:
# [1] = test system: patients with refractory chronic spontaneous urticaria; experiment: Phase II CSU study (Cohorts 1 and 2): UAS7, weekly itch, weekly hives; format: in vivo, human
# Excerpt: A Phase II, Multicenter, Randomized, Double-Blind, Placebo-Controlled Pilot and Dose-Ranging Study of Fenebrutinib in Patients with Refractory Chronic Spontaneous Urticaria (CSU)
# This study was designed to evaluate the efficacy and safety of fenebrutinib compared with placebo as add-on therapy for the treatment of adult patients 18-75 years old who have been diagnosed with CSU and who remain symptomatic despite treatment with H1 antihistamines. Specific objectives and corresponding endpoints for the study are outlined below.
# This pilot and dose-ranging study is a multicenter, randomized, double-blind, placebo-controlled, parallel-group study of the efficacy and safety of fenebrutinib as add-on therapy for the treatment of adult patients 18-75 years old who have been diagnosed with CSU and who remain symptomatic despite treatment with H1 antihistamines (including doses up to 4 times the approved dose per local treatment guidelines). The study consists of two cohorts. Cohort 1 enrolled 41 patients across multiple sites. After screening, eligible patients were randomly allocated in a ˜2:1 ratio to receive fenebrutinib 200 mg orally (PO) twice daily (BID) (n=28) or matching placebo (n=13) for 8 weeks and maintain stable doses of standard-of-care H1 antihistamine therapy throughout the study. A dose-ranging cohort, Cohort 2, enrolled approximately 120 patients randomly allocated in a 1:1:1:1 ratio received 50 mg PO daily (QD), 150 mg PO QD, 200 mg PO BID of GDC-0853, or placebo, respectively, for 8 weeks while maintaining stable doses of standard-of-care H1 antihistamine therapy throughout the study.
# Both cohorts consist of three study periods over 14 weeks: (i) a screening period (Day −14 to Day −1), (ii) a treatment period [Day 1 to Day 57 (Week 0 to Week 8)], and (iii) a follow-up period [Day 57 to Day 85 (Week 8 to Week 12)].
# The primary efficacy endpoint was measured at Week 8 (Day 57). Patients must have maintained stable doses of their pre-randomization H1 antihistamine therapy throughout the treatment period. After completion of the 8-week treatment period, all patients in both cohorts will enter a 4-week safety follow-up period in which no fenebrutinib treatment is given as patients maintain stable doses of their pre-randomization H1 antihistamine therapy.
# The primary efficacy endpoint was the change in baseline in the UAS7 at Week 8 (Day 57). The change in the UAS7 (Table 9) is a summation of the average daily (a.m./p.m.) scores on the UAS (range: 0-6), which is a composite diary score with numeric severity intensity ratings on a scale of 0-3 (0=none to 3=intense/severe) for two domains: the intensity of the itch and the number of wheals/hives. The UAS is recorded by the patient twice daily (morning and evening) in the patient Urticaria Patient Daily eDiary.
# Continuous longitudinal efficacy endpoints will be analyzed using a mixed model for repeated measures (MMRM) and descriptive statistics as appropriate. Additional model covariates will include baseline UAS7 and its interaction with visit. Missing data will be handled by the model under the missing-at-random assumption without need for imputation.
# The secondary efficacy measurements are as described above in the “Study Objectives” section of this Example 2, and apply the UAS7 score and the weekly itch score measurement. Weekly itch scores are measured as part of the study patient's Urticaria Patient Daily eDiary.
# [2] = test system: CD19+ B cells; experiment: RA study: peripheral CD19+ B cells (flow cytometry); format: in vivo, human
# Procedure: Biomarkers were evaluated in serum or plasma samples at baseline and weeks 1, 4, and 12 in patients with available samples (cohort 1: n=438; cohort 2: n=86). The biomarkers evaluated in this assessment were chemokine [C-C motif] ligand 4 (CCL4), IL-6, and TNF-like cytokine 1A (TL1A). Total IgM, IgG, rheumatoid factor IgM autoantibody (RF), CCL4, TL1A, IL-6, and anti-CCP autoantibody (ACPA IgG) levels were analyzed with immunoassays. CD19^+ B cells and CD3^+ T cells were measured by flow cytometry. The proportion of patients achieving an ACR50 response at week 12 and the change in DAS28 score by week 12 were assessed relative to seropositivity (RF and/or ACPA positive at baseline) or baseline levels of RF in both cohorts. To select which biomarkers to evaluate in this trial, BTK-dependent myeloid biomarkers were identified using peripheral blood CD14^+ monocytes stimulated with immune-complexes in the presence or absence of a BTK inhibitor. In brief, the expression levels of genes in human monocytes were assayed under conditions of no stimulation; with human serum albumin immune complex stimulation; with stimulation and a low concentration of a BTK inhibitor with similar characteristics to fenebrutinib; or with stimulation and a high concentration of the BTK inhibitor. […] Genes annotated with cytokine activity were selected. The color bar represents normalized gene expression.
# [3] = Cohort 1, 200 mg BID vs placebo
smiles,measurement,setting,value
"C[C@H]1CN(C2COC2)CCN1c1ccc(Nc2cc(-c3ccnc(N4CCn5c(cc6c5CC(C)(C)C6)C4=O)c3CO)cn(C)c2=O)nc1 [fenebrutinib, (S)-2-(3′-(hydroxymethyl)-1-methyl-5-((5-(2-methyl-4-(oxetan-3-yl)piperazin-1-yl)pyridin-2-yl)amino)-6-oxo-1,6-dihydro-[3,4′-bipyridin]-2′-yl)-7,7-dimethyl-2,3,4,6,7,8-hexahydro-1H-cyclopenta[4,5]pyrrolo[1,2-a]pyrazin-1-one]","UAS7 - Change from BL to Week 4, Mean (SD)","[1]; Cohort 1, 200 mg BID",−21.1 (11.3)
same,"UAS7 - Change from BL to Week 4, Median","[1]; Cohort 1, 200 mg BID",−22.5
same,"UAS7 - Change from BL to Week 8, Mean (SD)","[1]; Cohort 1, 200 mg BID",−21.6 (11.8)
same,"UAS7 - Change from BL to Week 8, Median","[1]; Cohort 1, 200 mg BID",−23.0
same,"Weekly Hive Score - Change from BL to Week 4, Mean (SD)","[1]; Cohort 1, 200 mg BID",−11.6 (6.8)
same,"Weekly Hive Score - Change from BL to Week 4, Median","[1]; Cohort 1, 200 mg BID",−14.0
same,"Weekly Hive Score - Change from BL to Week 8, Mean (SD)","[1]; Cohort 1, 200 mg BID",−12.2 (7.1)
same,"Weekly Hive Score - Change from BL to Week 8, Median","[1]; Cohort 1, 200 mg BID",−14.0
same,"Weekly Itch Severity - Change from BL to Week 4, Mean (SD)","[1]; Cohort 1, 200 mg BID",−9.5 (5.4)
same,"Weekly Itch Severity - Change from BL to Week 4, Median","[1]; Cohort 1, 200 mg BID",−9.0
same,"Weekly Itch Severity - Change from BL to Week 8, Mean (SD)","[1]; Cohort 1, 200 mg BID",−9.4 (5.6)
same,"Weekly Itch Severity - Change from BL to Week 8, Median","[1]; Cohort 1, 200 mg BID",−9.0
same,"UAS7 - Change from BL to Week 4, Treatment difference in LS means, 90% CI",[1]; [3],"−12.5 (−18.9, −6.1) 0.002"
same,"UAS7 - Change from BL to Week 8, Treatment difference in LS means, 90% CI",[1]; [3],"−4.3 (−11.3, 2.7) 0.305"
same,"Weekly Hive Score - Change from BL to Week 4, Treatment difference in LS means, 90% CI",[1]; [3],"−7.5 (−11.2, −3.7) 0.002"
same,"Weekly Hive Score - Change from BL to Week 8, Treatment difference in LS means, 90% CI",[1]; [3],"−2.8 (−6.9, 1.4) 0.269"
same,"Weekly Itch Severity - Change from BL to Week 4, Treatment difference in LS means, 90% CI",[1]; [3],"−5.5 (−8.5, −2.6) 0.003"
same,"Weekly Itch Severity - Change from BL to Week 8, Treatment difference in LS means, 90% CI",[1]; [3],"−1.3 (−4.5, 1.8) 0.479"
same,patients well-controlled (UAS7≤6),"[1]; Cohort 1, 200 mg BID, Week 4",64%
same,"well-controlled patients, % treatment difference over placebo","[1]; Cohort 1, 200 mg BID, Week 4",48.6%
same,patients well-controlled (UAS7≤6),"[1]; Cohort 1, 200 mg BID, Week 8",65%
same,"well-controlled patients, % treatment difference over placebo","[1]; Cohort 1, 200 mg BID, Week 8",31.9%
same,weekly itch scores (treatment difference in LS means),"[1]; Cohort 1 and Cohort 2, each treatment group, all comers, Week 8",reduced weekly itch scores in each group
same,peripheral CD19+ B cells relative to placebo,"[2]; cohort 1 and cohort 2, by week 12",−4-13%
same,transient increase of peripheral CD19+ B cells relative to placebo,"[2]; cohort 1 and cohort 2, fenebrutinib treated groups, by week 1",45-79%
